According to patent publication US10316017B2, “COT modulators and methods of use thereof” (Gilead Sciences, Inc., priority 2015, dated 2019):
Where two headings read alike, the source gives them in different places.

How the values were obtained:
[1] = system: TNFα production in LPS-stimulated human monocytes; experiment: Cot Monocyte TNFα Cell Based Assay; conditions: Homo sapiens, Monocyte, read-out: EC50 TNF
Summary of the method: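 TR-FRET read-out of total secreted TNFα, normalized as % control (unstimulated = 0%, LPS-stimulated = 100%). Cells (5,000/well) were exposed to compound 1 h at 37 °C, then to 50 pg/ml LPS for a further 4 h.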

[2] = biological target: T1, human Cot catalytic domain (30-397 amino acids) (Homo sapiens, UniProt P41279); experiment: High Throughput Cot Biochemical Assay (KinEASE TR-FRET); conditions: read-out: IC50 HTRF
T1 construct: Purified recombinant human Cot catalytic domain (30-397 amino acids) was purchased from Cama Biosciences; purchased Cama Biosciences (so in the source)
Summary of the method: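 TR-FRET readout: Eu-labeled phospho-specific antibody binds XL665-tagged STK3 peptide after phosphorylation by Cot (aa 30-397, 5 nM). Conditions: 400 μM ATP, 1 μM peptide, MOPS pH 7.0 buffer with MgOAc, DTT, BSA, NP-40, glycerol; 0.1% DMSO.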

[3] = TNFα in LPS-stimulated human monocytes
[4] = Cot KinEASE TR-FRET (HTRF) biochemical assay, 400 μM ATP
[5] = Cot biochemical HTRF (KinEASE TR-FRET) assay
[6] = LPS-stimulated human monocytes, TNFα TR-FRET
[7] = Cot KinEASE TR-FRET, 400 μM ATP

T1 sequence (P41279 30-397): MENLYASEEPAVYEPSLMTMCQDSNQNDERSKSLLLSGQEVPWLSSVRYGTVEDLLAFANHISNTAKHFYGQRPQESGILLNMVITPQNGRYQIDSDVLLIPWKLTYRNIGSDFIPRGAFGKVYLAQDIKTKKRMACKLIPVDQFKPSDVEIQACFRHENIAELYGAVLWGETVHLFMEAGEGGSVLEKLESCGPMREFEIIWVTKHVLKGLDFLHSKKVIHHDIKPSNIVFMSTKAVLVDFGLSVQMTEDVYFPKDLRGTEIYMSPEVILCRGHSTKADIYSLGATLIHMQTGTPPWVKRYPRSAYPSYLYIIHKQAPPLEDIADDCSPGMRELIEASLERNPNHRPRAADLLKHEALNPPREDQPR

| Compound | EC50 [1, 3] [nM] | IC50 [2, 4] [nM] | IC50 [2, 5] [nM] | EC50 [1, 6] [nM] | IC50 [2, 7] [nM] |
| --- | --- | --- | --- | --- | --- |
| [2H]C(Nc1cc(Cl)c2ncc(C#N)c(NC3C(C)CCCC3C)c2c1)(c1ccc(F)cc1)c1cn(C2CC2)nn1 (stereo in doubt) [Example 320, 8-chloro-6-(((S)(1-cyclopropyl-1H-1,2,3-triazol-4-yl)(4-fluorophenyl)methyl-d)amino)-4-((2,6-dimethylcyclohexyl)amino) quinoline-3-carbonitrile] | 6430 | 1150 |  |  |  |
| CC(C)(C)CNc1c(C#N)cnc2c(Cl)cc(N[C@@H](c3cccc(-c4ccccc4)c3)c3cn(C4CC4)nn3)cc12 [Example 95, (S)-6-(([1,1'-biphenyl]-3-yl(1-cyclopropyl-1H-1,2,3-triazol-4-yl)methyl)amino)-8-chloro-4-(neopentylamino) quinoline-3-carbonitrile] | > 1000 | 24 |  |  |  |
| CC(C)(C)N1CCC(n2cc([C@@H](Nc3cc(Cl)c4ncc(C#N)c(NC5CCC5)c4c3)c3ccc(Cl)cc3)nn2)CC1 [Example 702, (S)-6-(((1-(1-(tert-butyl)piperidin-4-yl)-1H-1,2,3-triazol-4-yl)(4-chlorophenyl)methyl)amino)-8-chloro-4-(cyclobutylamino)quinoline-3-carbonitrile] | 17600 |  | 314 |  |  |
| [2H][C@](Nc1cc(C#N)c2ncc(C#N)c(NC3CCCC3(C)C)c2c1)(c1ccc(F)cc1)c1cn(C2(C(F)(F)F)CC2)nn1 (stereo partly drawn) [Example 1018, 4-((2,2-dimethylcyclopentyl)amino)-6-(((S)-(4-fluorophenyl)(1-(1-(trifluoromethyl)cyclopropyl)-1H-1,2,3-triazol-4-yl)methyl-d)amino)quinoline-3,8-dicarbonitrile] |  |  |  | 326 | 22 |
| [2H][C@](Nc1cc(Cl)c2ncc(C#N)c(N)c2c1)(c1ccc(F)cc1)c1cn(C2CC2)nn1 [Example 279, 4-amino-8-chloro-6-(((S)-(1-cyclopropyl-1H-1,2,3-triazol-4-yl)(4-fluorophenyl)methyl-d)amino)quinoline-3-carbonitrile] | 8200 | 3050 |  |  |  |
| [2H]C(Nc1cc(Cl)c2ncc(C#N)c(NC(CCC#N)c3ccccc3)c2c1)(c1cn(C2CC2)nn1)c1ccccc1Cl (stereo not shown) [Example 87, 8-chloro-6-(((2-chlorophenyl) (1-cyclopropyl-1H-1,2,3-triazol-4-yl)methyl-d)amino)-4-((3-cyano-1-phenylpropyl)amino) quinoline-3-carbonitrile] | > 1000 | > 10000 |  |  |  |
| [2H][C@](Nc1cc(Cl)c2ncc(C#N)c(NOC(C)(C)C)c2c1)(c1ccc(F)cc1)c1cn(C2CC2)nn1 [Example 280, (S)-4-(tert-butoxyamino)-8-chloro-6-(((1-cyclopropyl-1H-1,2,3-triazol-4-yl)(4-fluorophenyl)methyl-d)amino)quinoline-3-carbonitrile] | 1470 | 228 |  |  |  |
| [2H][C@](Nc1cc(Cl)c2ncc(C#N)c(N[C@H]3CCCC[C@H]3N)c2c1)(c1ccc(F)cc1)c1cn(C2CC2)nn1 [Example 230, 4-(((1S,2R)-2-aminocyclohexyl)amino)-8-chloro-6-(((S)-(1-cyclopropyl-1H-1,2,3-triazol-4-yl)(4-fluorophenyl)methyl-d)amino)quinoline-3-carbonitrile] | > 10000 | 337 |  |  |  |
| CC[C@@H](Nc1c(C#N)cnc2c(Cl)cc(N[C@@H](c3cccc(C(=O)N4CC(OC)C4)c3)c3c[nH]nn3)cc12)c1ccccc1 [Example 559, 8-chloro-6-(((S)-(3-(3-methoxyazetidine-1-carbonyl)phenyl)(1H-1,2,3-triazol-4-yl)methyl)amino)-4-(((R)-1-phenylpropyl)amino)quinoline-3-carbonitrile] | 6050 |  | 14 |  |  |
| [2H][C@](Nc1cc(Cl)c2ncc(C#N)c(Nc3cccc4ccccc34)c2c1)(c1ccc(F)cc1)c1cn(C2CC2)nn1 [Example 933, (S)-8-chloro-6-(((1-cyclopropyl-1H-1,2,3-triazol-4-yl)(4-fluorophenyl)methyl-d)amino)-4-(naphthalen-1-ylamino) quinoline-3-carbonitrile] |  |  |  | ≥ 1000 | 314 |

The remaining molecules from weak to strong by EC50 [1, 3], led by results:

| EC50 [1, 3] [nM] | IC50 [2, 4] [nM] | IC50 [2, 5] [nM] | EC50 [1, 6] [nM] | IC50 [2, 7] [nM] | Compound |
| --- | --- | --- | --- | --- | --- |
| 4450 |  | 78 |  |  | CC(C)(C)N1CCC(n2cc([C@@H](Nc3cc(Cl)c4ncc(C#N)c(Nc5ccc(Cl)c(Cl)c5F)c4c3)c3ccc(Cl)cc3)nn2)CC1 [Example 731, (S)-6-(((1-(1-(tert-butyl)piperidin-4-yl)-1H-1,2,3-triazol-4-yl)(4-chlorophenyl)methyl)amino)-8-chloro-4-((3,4-dichloro-2-fluorophenyl)amino)quinoline-3-carbonitrile] |
| 3650 | 353 |  |  |  | N#Cc1cnc2c(Cl)cc(N[C@@H](c3ccc(F)cc3)c3c[nH]nn3)cc2c1NCc1nccs1 [Example 402, (S)-8-chloro-6-(((4-fluorophenyl)(1H-1,2,3-triazol-4-yl)methyl)amino)-4-((thiazol-2-ylmethyl)amino)quinoline-3-carbonitrile] |
| 3290 |  | 85 |  |  | CC(C)(C)N1CCC(n2cc([C@@H](Nc3cc(Cl)c4ncc(C#N)c(Nc5cc(F)cc(Cl)c5)c4c3)c3ccc(Cl)cc3)nn2)CC1 [Example 696, (S)-6-(((1-(1-(tert-butyl)piperidin-4-yl)-1H-1,2,3-triazol-4-yl)(4-chlorophenyl)methyl)amino)-8-chloro-4-((3-chloro-5-fluorophenyl)amino)quinoline-3-carbonitrile] |
| 3180 | 104 |  |  |  | N#Cc1cnc2c(Cl)cc(N[C@@H](c3ccc(F)cc3)c3c[nH]nn3)cc2c1Nc1cncc(F)c1 [Example 353, (S)-8-chloro-6-(((4-fluorophenyl)(1H-1,2,3-triazol-4-yl)methyl)amino)-4-((5-fluoropyridin-3-yl)amino)quinoline-3-carbonitrile] |
| 1530 |  | 47 |  |  | CC(C(F)F)n1cc([C@@H](Nc2cc(Cl)c3ncc(C#N)c(Nc4cnc(F)c(F)c4)c3c2)c2ccc(F)cc2)nn1 (stereo partly drawn) [Example 407, 8-chloro-6-(((1S)-(1-(1,1-difluoropropan-2-yl)-1H-1,2,3-triazol-4-yl)(4-fluorophenyl)methyl)amino)-4-((5,6-difluoropyridin-3-yl)amino)quinoline-3-carbonitrile] |
| 1410 | 89 |  |  |  | [2H][C@@](Nc1cc(Cl)c2ncc(C#N)c(Nc3ccc(Cl)c(Cl)c3F)c2c1)(c1cn(C2CC2)nn1)c1ccccc1Cl [Example 183, (S)-8-chloro-6-(((2-chlorophenyl)(1-cyclopropyl-1H-1,2,3-triazol-4-yl)methyl-d)amino)-4-((3,4-dichloro-2-fluorophenyl)amino)quinoline-3-carbonitrile] |
| 821 |  | 41 |  |  | N#Cc1cccc([C@H](Nc2cc(Cl)c3ncc(C#N)c(Nc4ccc(Cl)c(Cl)c4F)c3c2)c2c[nH]nn2)c1 [Example 465, (S)-8-chloro-6-(((3-cyanophenyl)(1H-1,2,3-triazol-4-yl)methyl)amino)-4-((3,4-dichloro-2-fluorophenyl)amino) quinoline-3-carbonitrile] |
| 527 | 39 |  |  |  | [2H][C@](Nc1cc(Cl)c2ncc(C#N)c(N[C@H]3CCC[C@H](O)C3)c2c1)(c1ccc(F)cc1)c1cn(C2CC2)nn1 [Example 313, 8-chloro-6-(((S)-(1-cyclopropyl-1H-1,2,3-triazol-4-yl)(4-fluorophenyl)methyl-d)amino)-4-(((1S,3S)-3-hydroxycyclohexyl)amino) quinoline-3-carbonitrile] |
| 451 | 34 |  |  |  | [2H][C@](Nc1cc(Cl)c2ncc(C#N)c(N[C@@H]3CCCCC3(C)C)c2c1)(c1ccc(F)cc1)c1cn(C2CC2)nn1 [Example 318, 8-chloro-6-(((S)-(1-cyclopropyl-1H-1,2,3-triazol-4-yl)(4-fluorophenyl)methyl-d)amino)-4-(((R)-2,2-dimethylcyclohexyl)amino) quinoline-3-carbonitrile] |
| 318 |  | 3 |  |  | CCN(C)C(=O)c1cccc([C@H](Nc2cc(Cl)c3ncc(C#N)c(Nc4ccc(F)c(Cl)c4)c3c2)c2cn(C3CCN(C(C)(C)C)CC3)nn2)c1 [Example 674, (S)-3-((1-(1-(tert-butyl)piperidin-4-yl)-1H-1,2,3-triazol-4-yl)((8-chloro-4-((3-chloro-4-fluorophenyl)amino)-3-cyanoquinolin-6-yl)amino)methyl)-N-ethyl-N-methylbenzamide] |
| 266 |  | 3 |  |  | CC(=O)Nc1cccc([C@H](Nc2cc(Cl)c3ncc(C#N)c(Nc4ccc(F)c(Cl)c4)c3c2)c2cn(C3CCN(C(C)(C)C)CC3)nn2)c1 [Example 624, (S)-N-(3-((1-(1-(tert-butyl)piperidin-4-yl)-1H-1,2,3-triazol-4-yl)((8-chloro-4-((3-chloro-4-fluorophenyl)amino)-3-cyanoquinolin-6-yl)amino)methyl)phenyl)acetamide] |
| 266 |  | 68 |  |  | COC(C)(C)CNc1c(C#N)cnc2c(Cl)cc(N[C@@H](c3ccccc3)c3cn(C4CCN(C(C)(C)C)CC4)nn3)cc12 [Example 451] |
| 153 | 2 |  |  |  | CCN1CCC(n2cc([C@@H](Nc3cc(Cl)c4ncc(C#N)c(Nc5ccc(F)c(Cl)c5)c4c3)c3ccc(F)cc3)nn2)CC1 [Compound 5] |
